For 25 molecules, IC50 results are on record in the Kinase Knowledgebase extract (Sharma et al. 2016).

≈ marks a conversion by molar mass, not a printed value. A value given as a limit tells only on which side of the number the result lay.

The assay deals with CDK2 (human) (UniProt P24941). The experiment in a line: Enzyme Assay.
As a reminder, the IC50 is the concentration needed to halve the response being measured. For `CNCc1csc(C=NNc2ncnc3sc(C(C)(C)CF)cc23)n1`, the IC50 turned out to be 1.8 µg/mL (≈ 4.76 µM).

Regarding `CN(C)Cc1csc(C=NNc2ncnc3sc(C(C)(C)C)cc23)n1`, the IC50 is 1.4 µg/mL (≈ 3.74 µM). With `CCC(C)c1cc2c(NN=Cc3nc(CNC)cs3)ncnc2s1` (stereo not given), the 50% inhibitory concentration (IC50) was 0.44 µg/mL (≈ 1.22 µM). In the case of `CNCc1csc(C=NNc2ncnc3sc(C(C)(C)CO)cc23)n1`, the IC50 stood at 1.8 µg/mL (≈ 4.78 µM). `CC(C)(C)c1cc2c(NN=Cc3cscn3)ncnc2s1`: the IC50 turned out to be 2.2 µg/mL (≈ 6.93 µM).

In turn, `CC(C)(C)c1cc2c(NN=Cc3nc(C4CCNC4)cs3)ncnc2s1` (stereo not given) displayed an IC50 of 1.8 µg/mL (≈ 4.66 µM). Molecule `CC(C)(C)c1cc2c(NN=Cc3nccs3)ncnc2s1` showed an IC50 of 0.2 µg/mL (≈ 0.63 µM). For the molecule `CC(N)c1csc(C=NNc2ncnc3sc(C(C)(C)C)cc23)n1` (stereo not given), the IC50 worked out at 0.83 µg/mL (≈ 2.3 µM).

As to `CNCc1cnc(C=NNc2ncnc3sc(C(C)(C)C)cc23)s1`, the IC50 came to 0.35 µg/mL (≈ 0.971 µM). `CC(C)(C)c1cc2c(NN=Cc3nc(C4CCNCC4)cs3)ncnc2s1`: the IC50 was 1.7 µg/mL (≈ 4.24 µM). `CNCc1csc(C=NNc2ncnc3sc(C(C)C(C)C)cc23)n1` (stereo not given) had an IC50 of 0.88 µg/mL (≈ 2.35 µM). The result for `CNCc1csc(C=NNc2ncnc3sc(C4CCC4)cc23)n1` reads 1.4 µg/mL (≈ 3.91 µM); that for `CNC(C)c1csc(C=NNc2ncnc3sc(C(C)(C)C)cc23)n1` (stereo not given), 1.1 µg/mL (≈ 2.94 µM); that for `CCC(N)c1csc(C=NNc2ncnc3sc(C(C)(C)C)cc23)n1` (stereo not given), 1.4 µg/mL (≈ 3.74 µM).

The molecule `CC(C)(C)c1cc2c(NN=Cc3nc(CN)cs3)ncnc2s1` returned an IC50 of 0.38 µg/mL (≈ 1.1 µM). The molecule `CC(C)(C)c1cc2c(NN=Cc3nc4c(s3)CNC4)ncnc2s1` showed an IC50 of 0.2 µg/mL (≈ 0.558 µM). Consider `CCCC(C)c1cc2c(NN=Cc3nc(CNC)cs3)ncnc2s1` (stereo not given), for which the IC50 came out at 1.4 µg/mL (≈ 3.74 µM). `CNCc1csc(C=NNc2ncnc3sc(C(C)(C)C)cc23)n1` displayed an IC50 of 0.98 µg/mL (≈ 2.72 µM).

In the case of `CNCc1csc(C=NNc2ncnc3sc(C(C)C)cc23)n1`, the IC50 stood at 1.5 µg/mL (≈ 4.33 µM). On to `CC(C)(C)c1cc2c(NN=Cc3nc(C4CNC4)cs3)ncnc2s1`, for which the IC50 came to 1 µg/mL (≈ 2.68 µM). The result for `CNCc1csc(C=NNc2ncnc3sc(C4CCCCC4)cc23)n1` reads 0.81 µg/mL (≈ 2.1 µM). The result for `CC(C)(C)c1cc2c(NN=Cc3cncs3)ncnc2s1` reads 0.059 µg/mL (≈ 0.186 µM); that for `CC(N)c1csc(C=NNc2ncnc3sc(C(C)(C)CF)cc23)n1` (stereo not given), 0.68 µg/mL (≈ 1.8 µM). With `CNCc1csc(C=NNc2ncnc3sc(C4CC4)cc23)n1`, the IC50 was above 2 µg/mL.

`CNCc1ccc(C=NNc2ncnc3sc(C(C)(C)C)cc23)cc1` returned an IC50 of 0.68 µg/mL (≈ 1.92 µM).
